Laboratory results taken from article PMC5464773 (eLife, 2017).
Where two headings read alike, the source gives them in different places.

How the values were obtained:
[1] = tested on: BCR-ABL-expressing B-lineage acute lymphoblastic leukemia cells dependent on Mcl-1; assay: BH3 profiling, mitochondrial depolarization (JC-1) in permeabilized cells; format: cell-based; settings: BH3 profiling fits Mcl-1, sigmoidal dose-response (variable slope); for Top (best-fit value): constrained (Top < 100 or Top > 78); for LogEC50 (best-fit value): x = Log [Peptide] M, fits hit constraint or ambiguous
Method: (§1) Cell line identities were confirmed by STR profiling.
Peptides were titrated by serial dilution in MEB buffer (150 mM Mannitol, 10 mM HEPES-KOH pH 7.5, 50 mM KCl, 0.02 mM EGTA, 0.02 mM EDTA, 0.1% BSA and 5 mM Succinate) containing 20 μg/mL oligomycin, 50 μg/mL digitonin, 2 μM JC-1 and 10 mM 2-mercaptoethanol in 384-well plates. Controls for no depolarization (1% DMSO) and complete depolarization with the mitochondrial oxidative phosphorylation uncoupler FCCP (20 μM) were included for data normalization. […] 15 μL of cell suspension was added to each well containing 15 μL of treatment solution. […] To produce percent depolarization, the area under the resultant curve was calculated and normalized to the assay controls. Peptide titration curves were fit to sigmoidal dose-response curves using Graphpad PRISM seven to obtain EC50 values.

PC-3 cells = assay: iBH3, cytochrome c release in unprimed cells (BAK/BAX activator function); format: cell-based; settings: for peptide concentration leading to cytochrome c release in unprimed cells: PC-3, unprimed, iBH3, 25°C, 1 hr; for LogEC50 (best-fit value) / HillSlope (best-fit value) / Bottom (best-fit value) / Top (best-fit value): iBH3 fit PC-3, sigmoidal dose-response (variable slope); for LogEC50 (best-fit value): log of EC50, x axis Log [Peptide M]; for Bottom (best-fit value) / Top (best-fit value): fit of 4 replicates
Method: To test the possibility that FS1, FS2 or FS3 may directly activate BAK and BAX, we measured cytochrome c release in two ‘unprimed’ cell lines (PC-3 and SF295). Unprimed cells require BAK/BAX activators to release cytochrome c ([Certo et al., 2006]).
as §1
Plates were incubated at 25°C for 1 hr.

[2] = tested on: BCR-ABL-expressing B-lineage acute lymphoblastic leukemia cells dependent on Bfl-1; settings: for HillSlope (best-fit value) / Bottom (best-fit value) / Top (best-fit value) / LogEC50 (best-fit value): iBH3 fits Bfl-1, sigmoidal dose-response (variable slope); for Bottom (best-fit value) / Top (best-fit value): fit of 3 replicates; for cytochrome c release pattern in iBH3: low concentrations, highly primed cells of known anti-apoptotic protein dependency; for LogEC50 (best-fit value): log of EC50, x axis Log [Peptide M]
Method: (§2) As an additional test for on-pathway activity, we measured cytochrome c release in the same engineered cell lines in response to peptide treatment, using iBH3 profiling ([Ryan et al., 2016]).
(§3) The creation and characterization of the BCR-ABL-expressing B-lineage acute lymphoblastic leukemia suspension cell lines with engineered dependencies on human versions of anti-apoptotic genes is detailed in [Koss et al. (2016)]). Cells were grown in RPMI (Life Technologies, Carlsbad, CA) with 10% fetal bovine serum, 2 mM L-glutamine, 10 mL/L 100x Pen/Strep (Life Technologies # 15140122), 25 mM HEPES and 10 mL/L 100x NEAA (Life Technologies, 11140050). The adherent cell lines PC-3 (RRID: CVCL_0035) and SF295 (RRID: CVCL_1690) are from the NCI60 panel ([Lorenzi et al., 2009]) and were grown in RPMI (Life Technologies) with 10% fetal bovine serum, 2 mM L-glutamine and 10 mL/L 100x Pen/Strep (Life Technologies # 15140122 ). Cell line identities were confirmed by STR profiling. The Lookout Mycoplasma PCR detection kit (Sigma) was used to detect mycoplasma infection.
(§4) Cells were suspended in MEB buffer (150 mM mannitol, 50 mM KCl, 10 mM HEPES, 5 mM succinic acid, 20 μM EGTA, 20 μM EDTA, 0.1% BSA, final pH 7.4) at 0.5*10^6 cells/mL (adherent lines) or 2 *10^6 cells/mL (suspension lines). Cell suspension was added to a 384 non-binding well plate (10 μL/well) containing peptides at 2X final concentration in MEB with 20 μg/mL digitonin. Plates were incubated at 25°C for 1 hr. To terminate exposure, 10 μL of 4% formaldehyde in PBS was added to each well, plates were incubated for 10 min before addition of 10 μL N2 buffer (1.7M Tris, 1.25M glycine, pH 9.1) for 5 min. 10 μL of staining buffer (2% Tween20, 10% BSA, PBS) containing 10 μg/mL Hoechst 33342 and 1.25 μg/mL anti-cytochrome c Alexa647 conjugate (BioLegend clone 6H2.B4) was added to each well before sealing the plate and shaking overnight. The median fluorescence of the cytochrome c channel of Hoechst positive singlets was recorded by an IntelliCyt iQue Screener Plus. Cytochrome c release was determined by normalizing the median fluorescence intensity (MFI) data to positive control wells (Alamethicin) and negative control wells (DMSO) as follows: Cytochromecrelease=1−(MFIsample−MFIAlamethicin)/(MFIDMSO−MFIAlamethicin)

[3] = tested on: BCR-ABL-expressing B-lineage acute lymphoblastic leukemia cells dependent on Mcl-1; settings: iBH3 fits Mcl-1, sigmoidal dose-response (variable slope); for Bottom (best-fit value) / Top (best-fit value): fit of 3 replicates; for LogEC50 (best-fit value): log of EC50, x axis Log [Peptide M]
Method: as §2, §3, §4

[4] = tested on: BCR-ABL-expressing B-lineage acute lymphoblastic leukemia cells dependent on Bcl-2; assay: iBH3 profiling, cytochrome c release; format: cell-based; settings: iBH3 fits Bcl-2, sigmoidal dose-response (variable slope); for LogEC50 (best-fit value): log of EC50, x axis Log [Peptide M]; for Bottom (best-fit value) / Top (best-fit value): fit of 3 replicates
Method: as §2, §3, §4

[5] = tested on: BCR-ABL-expressing B-lineage acute lymphoblastic leukemia cells dependent on Bcl-xL; assay: iBH3 profiling, cytochrome c release; format: cell-based; settings: iBH3 fits Bcl-xL, sigmoidal dose-response (variable slope); for LogEC50 (best-fit value): log of EC50, x axis Log [Peptide M]; for Bottom (best-fit value) / Top (best-fit value): fit of 3 replicates
Method: as §2, §3, §4

| Substance | HillSlope (best-fit value) [1] | Top (best-fit value) [1] | LogEC50 (best-fit value) [1] | peptide concentration leading to cytochrome c release in unprimed cells (PC-3 cells) [µM] | LogEC50 (best-fit value) (PC-3 cells) | HillSlope (best-fit value) [2] | Bottom (best-fit value) [2] | Top (best-fit value) [2] | cytochrome c release pattern in iBH3 [2] | HillSlope (best-fit value) [3] | Bottom (best-fit value) [3] | Top (best-fit value) [3] | LogEC50 (best-fit value) [4] | HillSlope (best-fit value) [4] | Bottom (best-fit value) [4] | Top (best-fit value) [4] | LogEC50 (best-fit value) [5] | HillSlope (best-fit value) [5] | Bottom (best-fit value) [5] | Top (best-fit value) [5] | further results |
| --- | --- | --- | --- | --- | --- | --- | --- | --- | --- | --- | --- | --- | --- | --- | --- | --- | --- | --- | --- | --- | --- |
| Ac-QWIREIAAGLRRFADILNAQVER-NH2 [FS3] | 0.8379 | ~ 100 | -5.183 | 30 to 100 | -4.638 | 0.832 | ~ -46.09 | 0.9862 | selectively induced cytochrome c release only in Bfl-1 dependent cell lines | 4.529 | 0.1359 | 0.9781 | -5.822 | 2.312 | 0.1754 | 0.986 | -5.617 | 1.589 | 0.1375 | 0.9805 | Bottom (best-fit value) ([1]; constrained (0 < Bottom < 5 or Bottom < 5)): 4.876; HillSlope (best-fit value) (PC-3 cells): 2.225; Bottom (best-fit value) (PC-3 cells): 0.07242; Top (best-fit value) (PC-3 cells): 1.062 |
| Ac-QWVREIAAGLRLAADNVNAQLER-NH2 [FS1] | 0.346 | 99.39 | -4.985 | > 100 | ~ -3.754 | 2.245 | 0.8808 | 0.9982 | selectively induced cytochrome c release only in Bfl-1 dependent cell lines | 1.721 | 0.09874 | 0.9023 | -3.946 | 0.814 | 0.1541 | 1.46 | ~ -4.446 | ~ 9.069 | 0.1572 | 0.461 | HillSlope (best-fit value) (PC-3 cells): ~ -10.78; Bottom (best-fit value) (PC-3 cells): ~ -63.64; Top (best-fit value) (PC-3 cells): 0.1; LogEC50 (best-fit value) [2]: -6.521; LogEC50 (best-fit value) [3]: -4.595 |
| Ac-QWVREIAAGLRRAADDVNAQVER-NH2 [FS2] | 0.4032 | ~ 100 | -4.604 | > 100 |  | 0.6008 | ~ -2.146 | 1.01 | selectively induced cytochrome c release only in Bfl-1 dependent cell lines | 1.725 | 0.1056 | 1.316 | -4.564 | 1.006 | 0.134 | 1.087 | ~ -3.991 | ~ 14.29 | 0.1223 | ~ 0.6231 | LogEC50 (best-fit value) [2]: ~ -9.301; LogEC50 (best-fit value) [3]: -4.058 |
